The test system of data set [1] is Duck hepatitis B virus. The data set is described as follows: Antiviral activity against Duck hepatitis B virus infected in pekin duck primary hepatocytes assessed as inhibition of viral replication at 10 ug/mL. As to conditions: Hepatocyte, in Anas platyrhynchos. In kind it is functional.
For data set [2], the system named is Duck hepatitis B virus. The data set is described as follows: Antiviral activity against Duck hepatitis B virus infected in pekin duck primary hepatocytes assessed as inhibition of viral replication. It is filed as functional, organism-based. As to conditions: Hepatocyte.
Data set [3] deals with Hepatitis B virus. The data set is described as follows: Antiviral activity against Hepatitis B virus infected in human HepG2(2.2.15) cells assessed as inhibition of viral replication at 10 ug/mL. In kind it is functional.
Data set [4] relates to Hepatitis B virus. The data set is described as follows: Antiviral activity against Hepatitis B virus infected in human HepG2(2.2.15) cells assessed as inhibition of viral replication. In kind it is functional, organism-based.
Data set [5] has as its system Hepatitis C virus. The data set is described as follows: Antiviral activity against Hepatitis C virus subtype 1a infected in human HuH7 cells at 20 ug/mL after 2 days by q-PCR analysis. As to conditions: Huh-7, 48 h. In kind it is functional, Hepacivirus hominis.
Data set [6] in a line: Cytotoxicity against human HuH7 cells after 2 days by XTT assay. It is filed as cell-based, Huh-7. On the technique in general: Formazan colour is commonly taken as a measure of viable cells.
For data set [7], the system named is Hepatitis C virus. The data set is described as follows: Antiviral activity against Hepatitis C virus subtype 1a infected in human HuH7 cells after 2 days by q-PCR analysis. In kind it is functional, organism-based, Hepacivirus hominis. As to conditions: Huh-7, 48 h.
Data set [8] deals with Duck hepatitis B virus. Nature of the data set: Antiviral activity against Duck hepatitis B virus infected in pekin duck primary hepatocytes assessed as inhibition of viral replication at 0.5 to 1 ug/mL. In kind it is functional, Hepatocyte.
For data set [9], the system named is Hepatitis B virus. The data set is described as follows: Antiviral activity against Hepatitis B virus infected in human HepG2(2.2.15) cells assessed as inhibition of viral replication at 0.5 to 1 ug/mL. In kind it is functional.
Data set [10] relates to Hepatitis C virus. The data set is described as follows: Antiviral activity against Hepatitis C virus subtype 1a infected in human HuH7 cells at 20 to 50 ug/mL after 2 days by q-PCR analysis. It is filed as functional, Hepacivirus hominis, Huh-7.
Data set [11] deals with Hepatitis C virus. The data set is described as follows: Antiviral activity against Hepatitis C virus subtype 1a infected in human HuH7 cells at 10 ug/mL after 2 days by q-PCR analysis. As to conditions: Huh-7, 48 h. In kind it is functional, Hepacivirus hominis.
Data set [12] concerns Hepatitis C virus. The data set is described as follows: Antiviral activity against Hepatitis C virus subtype 1a infected in human HuH7 cells at 5 ug/mL after 2 days by q-PCR analysis. In kind it is functional, Hepacivirus hominis. As to conditions: Huh-7, 48 h.
Data set [13] relates to Hepatitis C virus. The data set is described as follows: Potentiation of ribavirin antiviral activity against Hepatitis C virus subtype 1a infected in human HuH7 cells at 5 ug/mL after 2 days by q-PCR analysis. In kind it is functional, organism-based. As to conditions: Hepacivirus hominis, Huh-7.
In data set [14] the test system is Hepatitis C virus. The data set is described as follows: Ratio of ribavirin EC50 to compound EC50 for Hepatitis C virus subtype 1a. It is filed as functional, Hepacivirus hominis.

Converted amounts (≈) assume the structure as drawn. The source made the active and inactive calls. No cut-off for these calls is given here.

What is called inhibition is how much of the control response was suppressed. A word on the EC50: it is the concentration at which the effect is half-maximal. Usually CC50 stands for the concentration at which the toxic effect on the cells reaches its halfway point. Low readings indicate harm at low concentration, high ones better tolerance by the cells. On to `[N-]=[N+]=N[C@H]1C[C@H](n2ccc(=O)[nH]c2=O)O[C@@H]1C(=O)O`, for which the inhibition at 10 µg/mL with Duck hepatitis B virus [1] came to 62%; in the data set with Hepatitis B virus [3], 50%. For the same compound, the EC50 in the data set on Duck hepatitis B virus [2] was 5 µg/mL (≈ 18.7 µM); in the data set with Hepatitis B virus [4], 10 µg/mL (≈ 37.4 µM); in the data set on Hepatitis C virus [7] it was more than 20 µg/mL. In the data set on Hepatitis C virus [5], this compound came in with an inhibition at 20 µg/mL of 40%. The compound further came in with a CC50 at 48 h in data set [6] of more than 250 µg/mL.
Turning to `Nc1ccn([C@@H]2CS[C@H](CO)O2)c(=O)n1` [LAMIVUDINE], the “inhibition (INH)” value in the data set with Duck hepatitis B virus [8] was 96%; in the data set with Hepatitis B virus [9] it was 88%.
Regarding `CC(=O)O[C@H]1C[C@H](n2cc(F)c(=O)[nH]c2=O)O[C@@H]1C(=O)O`, the inhibition at 10 µg/mL in the data set on Duck hepatitis B virus [1] and with Hepatitis B virus [3] was 0% throughout. In the data set on Hepatitis C virus [5], this compound showed an inhibition at 20 µg/mL of 0%. In [6], this compound had a CC50 at 48 h of more than 250 µg/mL.
For the compound `Cc1cn([C@H]2C[C@H](N=[N+]=[N-])[C@@H](C(=O)O)O2)c(=O)[nH]c1=O`, the inhibition at 10 µg/mL in the data set on Duck hepatitis B virus [1] amounted to 55%; in the data set on Hepatitis B virus [3], 50%. Moreover, the EC50 in the data set with Duck hepatitis B virus [2] worked out at 5 µg/mL (≈ 17.8 µM); in the data set on Hepatitis B virus [4], 10 µg/mL (≈ 35.6 µM). Further, the inhibition at 20 µg/mL in the data set with Hepatitis C virus [5] amounted to 30%. Besides, the CC50 at 48 h in data set [6] is more than 250 µg/mL.
In the case of `Cc1cn([C@H]2C=C[C@@H](C(=O)O)O2)c(=O)[nH]c1=O`, the values for the inhibition at 10 µg/mL in the data set on Duck hepatitis B virus [1] and in the data set on Hepatitis B virus [3] were 63% and 58%, respectively. Besides, the EC50 in the data set with Duck hepatitis B virus [2] was 2.5 µg/mL (≈ 10.5 µM); in the data set on Hepatitis B virus [4] it was 5 µg/mL (≈ 21 µM). Also, in the data set with Hepatitis C virus [5], at 20 µg/mL the inhibition was 0%. This compound showed a CC50 at 48 h in data set [6] of more than 250 µg/mL.
`NC(=O)c1ncn([C@@H]2O[C@H](CO)[C@@H](O)[C@H]2O)n1` [RIBAVIRIN]: the “inhibition (INH)” value in the data set on Hepatitis C virus [10] was found to be 50%. This compound showed an inhibition at 10 µg/mL in the data set with Hepatitis C virus [11] of 35%. Besides, it took 20 µg/mL (≈ 81.9 µM) to reach a half-maximal effect in the data set on Hepatitis C virus [7] (EC50).
As for `O=C(O)[C@@H]1CC[C@H](n2ccc(=O)[nH]c2=O)O1`, the inhibition at 10 µg/mL in the data set with Duck hepatitis B virus [1] and with Hepatitis B virus [3] was 0% in each case. Also, the inhibition at 20 µg/mL in the data set on Hepatitis C virus [5] is 0%. Besides, in [6], the CC50 at 48 h was more than 250 µg/mL.
As to `Cc1cn([C@H]2CC=C(C(=O)O)O2)c(=O)[nH]c1=O`, the inhibition at 10 µg/mL came out at 65% in the data set with Duck hepatitis B virus [1] and 61% with Hepatitis B virus [3]. Besides, the values for the EC50 in the data set with Duck hepatitis B virus [2], with Hepatitis B virus [4] and in the data set with Hepatitis C virus [7] were 2.5 µg/mL (≈ 10.5 µM), 5 µg/mL (≈ 21 µM) and 20 µg/mL (≈ 84 µM), respectively. In addition, 20 µg/mL produced 50% inhibition with Hepatitis C virus [5]. The same compound gave a CC50 at 48 h in data set [6] of more than 250 µg/mL.
As for `N=c1ccn([C@H]2CC[C@@H](C(=O)O)O2)c(=O)[nH]1`, the inhibition at 10 µg/mL with Duck hepatitis B virus [1] was determined as 80%; in the data set on Hepatitis B virus [3] it was 60%. Also, the half-maximal effective concentration (EC50) was 0.5 µg/mL (≈ 2.22 µM) with Duck hepatitis B virus [2] and 5 µg/mL (≈ 22.2 µM) in the data set with Hepatitis B virus [4]. Besides, in the data set with Hepatitis C virus [5], at 20 µg/mL the inhibition was 0%. This compound gave a CC50 at 48 h in [6] of more than 250 µg/mL.
`COC(=O)[C@@H]1CC[C@H](n2ccc(N)nc2=O)O1`: the inhibition at 10 µg/mL with Duck hepatitis B virus [1] was determined as 90%; in the data set with Hepatitis B virus [3] it was 63%; with Hepatitis C virus [11] it was 50%. In addition, the EC50 worked out at 0.5 µg/mL (≈ 2.09 µM) in the data set on Duck hepatitis B virus [2], 5 µg/mL (≈ 20.9 µM) with Hepatitis B virus [4] and 10 µg/mL (≈ 41.8 µM) with Hepatitis C virus [7]. For the same compound, testing at 5 µg/mL with Hepatitis C virus [12] gave an inhibition of 38%. Moreover, the outcome in the data set with Hepatitis C virus [13] was Active. This compound also came in with a CC50 at 48 h in [6] of more than 250 µg/mL. Moreover, in the data set with Hepatitis C virus [14], the “Ratio EC50” value is more than 2.

The values above are taken from ChEMBL document CHEMBL2150904, “A new class of pyrimidine nucleosides: inhibitors of hepatitis B and C viruses” (Bioorg Med Chem Lett, 2012).
